In paper PMC12028158, “Synthesis and In Vitro Evaluation of the Anticancer Effect of Novel Phosphonium Vindoline Derivatives” (International Journal of Molecular Sciences, 2025):

Assays:
Type in all cases: cell-based
HCT-15 = assay: NCI60 one-dose screen; conditions: Homo sapiens, HCT-15, read-out: Growth percent
MALME-3M = assay: NCI60 one-dose screen; conditions: Homo sapiens, Malme-3M, read-out: Growth percent
SW-620 [1] = assay: NCI60 one-dose screen; conditions: Homo sapiens, SW-620, read-out: Growth percent
OVCAR-4 = assay: NCI60 one-dose screen; conditions: Homo sapiens, OVCAR-4, read-out: Growth percent
T-47D = assay: NCI60 one-dose screen; conditions: Homo sapiens, T47D, read-out: Growth percent
SF-268 = assay: NCI60 one-dose screen; conditions: Homo sapiens, SF-268, read-out: Growth percent
SNB-75 = assay: NCI60 one-dose screen; conditions: Homo sapiens, SNB-75, read-out: Growth percent
HCT-116 [2] = assay: NCI60 one-dose screen; conditions: Homo sapiens, HCT-116, read-out: Growth percent
RPMI-8226 = assay: NCI60 one-dose screen; conditions: Homo sapiens, RPMI-8226, read-out: Growth percent
NCI/ADR-RES = assay: NCI60 one-dose screen; conditions: Homo sapiens, read-out: Growth percent
CCRF-CEM = assay: NCI60 one-dose screen; conditions: Homo sapiens, read-out: Growth percent
UO-31 = assay: NCI60 one-dose screen; conditions: Homo sapiens, UO-31, read-out: Growth percent
IGROV1 = assay: NCI60 one-dose screen; conditions: Homo sapiens, IGROV-1, read-out: Growth percent
SK-MEL-5 = assay: NCI60 one-dose screen; conditions: Homo sapiens, SK-MEL-5, read-out: Growth percent
OVCAR-5 = assay: NCI60 one-dose screen; conditions: Homo sapiens, OVCAR-5, read-out: Growth percent
A498 [3] = assay: NCI60 one-dose screen; conditions: Homo sapiens, A498, read-out: Growth percent
M14 = assay: NCI60 one-dose screen; conditions: Homo sapiens, M14, read-out: Growth percent
[4] = tested on: 60 human tumor cell lines (NCI60); assay: NCI60 one-dose screen, overall mean; conditions: Homo sapiens, 60 cell, read-out: Mean growth percent
MDA-MB-231/ATCC = assay: NCI60 one-dose screen; conditions: Homo sapiens, MDA-MB-231, read-out: Growth percent
HS 578T = assay: NCI60 one-dose screen; conditions: Homo sapiens, Hs-578T, read-out: Growth percent
HCC-2998 = assay: NCI60 one-dose screen; conditions: Homo sapiens, HCC 2998, read-out: Growth percent
SK-MEL-28 = assay: NCI60 one-dose screen; conditions: Homo sapiens, SK-MEL-28, read-out: Growth percent
HT29 = assay: NCI60 one-dose screen; conditions: Homo sapiens, HT-29, read-out: Growth percent
SF-539 = assay: NCI60 one-dose screen; conditions: Homo sapiens, SF-539, read-out: Growth percent
SK-OV-3 = assay: NCI60 five-dose screen; conditions: Homo sapiens, SK-OV-3
COLO 205 = assay: NCI60 five-dose screen; conditions: Homo sapiens, COLO 205
HOP-62 = assay: NCI60 five-dose screen; conditions: Homo sapiens, HOP-62
UACC-62 = assay: NCI60 five-dose screen; conditions: Homo sapiens, UACC-62
A498 [5] = assay: NCI60 five-dose screen; conditions: Homo sapiens, A498
SF-295 = assay: NCI60 five-dose screen; conditions: Homo sapiens, SF-295
OVCAR-3 = assay: NCI60 five-dose screen; conditions: Homo sapiens, OVCAR-3
NCI-H23 = assay: NCI60 five-dose screen; conditions: Homo sapiens, NCI-H23
DU-145 = assay: NCI60 five-dose screen; conditions: Homo sapiens, DU-145
LOX IMVI = assay: NCI60 five-dose screen; conditions: Homo sapiens
NCI-H522 = assay: NCI60 five-dose screen; conditions: Homo sapiens, NCI-H522
NCI-H322M = assay: NCI60 five-dose screen; conditions: Homo sapiens
MDA-MB-468 = assay: NCI60 five-dose screen; conditions: Homo sapiens, MDA-MB-468
SR = assay: NCI60 one-dose screen; conditions: Homo sapiens, read-out: Growth percent
NCI-H460 = assay: NCI60 five-dose screen; conditions: Homo sapiens, NCI-H460
Prostate Cancer panel = assay: NCI60 five-dose screen, panel mean; conditions: Homo sapiens, read-out: GI50 Mean
SW-620 [6] = assay: NCI60 five-dose screen; conditions: Homo sapiens, SW-620
UACC-257 = assay: NCI60 five-dose screen; conditions: Homo sapiens, UACC-257
HCT-116 [7] = assay: NCI60 five-dose screen; conditions: Homo sapiens, HCT-116
KM12 = assay: NCI60 five-dose screen; conditions: Homo sapiens, KM12

CCC12C=CCN3CC[C@@]4(c5ccc(OC)cc5N(C)[C@H]4[C@@](O)(C(=O)OC)[C@@H]1OC(C)=O)[C@@H]32 (some centres unmarked) [compound 2, vindoline]
activity at 10 µM (HCT-15): 99%
activity at 10 µM (MALME-3M): 98%
activity at 10 µM (SW-620 [1]): 104%
activity at 10 µM (OVCAR-4): 98.8%
activity at 10 µM (T-47D): 95.7%
activity at 10 µM (SF-268): 100%
activity at 10 µM (SNB-75): 73.1%
activity at 10 µM (HCT-116 [2]): 104%
activity at 10 µM (RPMI-8226): 101%
activity at 10 µM (NCI/ADR-RES): 110%
activity at 10 µM (CCRF-CEM): 96.5%
activity at 10 µM (UO-31): 83.9%
activity at 10 µM (IGROV1): 98.4%
activity at 10 µM (SK-MEL-5): 102%
activity at 10 µM (OVCAR-5): 91.2%
activity at 10 µM (A498 [3]): 99.6%
activity at 10 µM (M14): 104%
activity at 10 µM [4]: 100%
activity at 10 µM (MDA-MB-231/ATCC): 97.7%
activity at 10 µM (HS 578T): 113%
activity at 10 µM (HCC-2998): 118%
activity at 10 µM (SK-MEL-28): 106%
activity at 10 µM (HT29): 98.5%
activity at 10 µM (SF-539): 104%

CC[C@]12C=CCN3CC[C@@]4(c5ccc(OC)cc5N(C)[C@H]4[C@@](O)(C(=O)OC)[C@@H]1OC(=O)CCCC[P+](c1ccccc1)(c1ccccc1)c1ccccc1)[C@@H]32 [compound 4, reference compound]
GI50 (SK-OV-3): 725 nM
activity at 10 µM (HCT-15): 99.3%
activity at 10 µM (MALME-3M): -35.8%
GI50 (COLO 205): 242 nM
GI50 (HOP-62): 2600 nM
GI50 (UACC-62): 403 nM
activity at 10 µM (SW-620 [1]): 29.4%
activity at 10 µM (OVCAR-4): 5.22%
GI50 (A498 [5]): 2840 nM
GI50 (SF-295): 2750 nM
activity at 10 µM (T-47D): 4.99%
activity at 10 µM (SF-268): 26.2%
GI50 (OVCAR-3): 398 nM
GI50 (NCI-H23): 1220 nM
GI50 (DU-145): 763 nM
GI50 (LOX IMVI): 1170 nM
activity at 10 µM (SNB-75): -12.8%
GI50 (NCI-H522): 229 nM
GI50 (NCI-H322M): 3000 nM
activity at 10 µM (HCT-116 [2]): 8.03%
GI50 (MDA-MB-468): 170 nM
activity at 10 µM (RPMI-8226): 15.4%
activity at 10 µM (SR): 17.9%
activity at 10 µM (NCI/ADR-RES): 91.6%
GI50 (NCI-H460): 2110 nM
activity at 10 µM (CCRF-CEM): 15.6%
activity at 10 µM (UO-31): 81.9%
activity at 10 µM (IGROV1): -36.4%
GI50 (Prostate Cancer panel): 570 nM
GI50 (SW-620 [6]): 1180 nM
activity at 10 µM (SK-MEL-5): -72.9%
activity at 10 µM (OVCAR-5): 23.8%
activity at 10 µM (A498 [3]): 52.2%
GI50 (UACC-257): 215 nM
activity at 10 µM (M14): 29.4%
activity at 10 µM [4]: 11.9%
activity at 10 µM (MDA-MB-231/ATCC): -2.41%
activity at 10 µM (HS 578T): 9.79%
activity at 10 µM (HCC-2998): 15.9%
GI50 (HCT-116 [7]): 1060 nM
activity at 10 µM (SK-MEL-28): 12.5%
activity at 10 µM (HT29): 2.65%
GI50 (KM12): 442 nM
activity at 10 µM (SF-539): 19%
